Tested on: KRAS patient-derived spheroids with HUVEC/MSC, viability
Assay: Anticancer human tumor 941728-121-R-J1-PDC patient-derived lung adenocarcinoma cell line growth inhibition [KRAS2]
Settings: for IC50: curve of first compound; for viability, T/C: stronger effect = lower value
How it was run: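 Combination screen of spheroid viability in tumor-cell co-cultures with endothelial (HUVEC) and mesenchymal stem cell stroma. Each agent was tested in half-log dilutions, topping at clinical Cmax or at 10 microM without a known Cmax.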

[1] = second compound 0.1 µM, first compound 0.0316 µM
[2] = second compound 0.1 µM, first compound 0.1 µM
[3] = second compound 0.1 µM, first compound 0.316 µM
[4] = second compound 0.1 µM, first compound 1 µM
[5] = second compound 0.1 µM, first compound 3.16 µM
[6] = second compound 0.1 µM, first compound 10 µM
[7] = second compound 0.316 µM, first compound 0.0316 µM
[8] = second compound 0.316 µM, first compound 0.1 µM
[9] = second compound 0.316 µM, first compound 0.316 µM
[10] = second compound 0.316 µM, first compound 1 µM
[11] = second compound 0.316 µM, first compound 3.16 µM
[12] = second compound 0.316 µM, first compound 10 µM
[13] = second compound 1 µM, first compound 0.0316 µM
[14] = second compound 1 µM, first compound 0.1 µM
[15] = second compound 1 µM, first compound 0.316 µM
[16] = second compound 1 µM, first compound 1 µM
[17] = second compound 1 µM, first compound 3.16 µM
[18] = second compound 1 µM, first compound 10 µM
[19] = second compound 3.16 µM, first compound 0.0316 µM
[20] = second compound 3.16 µM, first compound 0.1 µM
[21] = second compound 3.16 µM, first compound 0.316 µM
[22] = second compound 3.16 µM, first compound 1 µM
[23] = second compound 3.16 µM, first compound 3.16 µM
[24] = second compound 3.16 µM, first compound 10 µM
[25] = second compound 10 µM, first compound 0.0316 µM
[26] = second compound 10 µM, first compound 0.1 µM
[27] = second compound 10 µM, first compound 0.316 µM
[28] = second compound 10 µM, first compound 1 µM
[29] = second compound 10 µM, first compound 3.16 µM
[30] = second compound 10 µM, first compound 10 µM
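Further: spheroids exposed to agents for seven days before readout.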

Row | SMILES | IC50 (second compound 0.1 µM) | IC50 (second compound 0.316 µM) | IC50 (second compound 1 µM) | IC50 (second compound 3.16 µM) | IC50 (second compound 10 µM) | viability, T/C [1] | viability, T/C [2] | viability, T/C [3] | viability, T/C [4] | viability, T/C [5] | viability, T/C [6] | viability, T/C [7] | viability, T/C [8] | viability, T/C [9] | viability, T/C [10] | viability, T/C [11] | viability, T/C [12] | viability, T/C [13] | viability, T/C [14] | viability, T/C [15] | also measured
1 | CC1OCC2(CCN(c3cnc(Sc4ccnc(N)c4Cl)c(N)n3)CC2)C1N (centres undefined) + C=CC(=O)N1CCN(c2nc(=O)n(-c3c(C)ccnc3C(C)C)c3nc(-c4c(O)cccc4F)c(F)cc23)C(C)C1 | < 31.6 nM | < 31.6 nM | < 31.6 nM | < 31.6 nM | < 31.6 nM | 21.9% | 20.6% | 17.3% | 16.8% | 16.6% | 12.9% | 26.5% | 23% | 20.1% | 17.1% | 15.1% | 12.4% | 31.1% | 24.7% | 20.4% | viability, T/C [16]: 18.9%; viability, T/C [17]: 19.6%; viability, T/C [18]: 17.8%; viability, T/C [19]: 29%; viability, T/C [20]: 25.4%; viability, T/C [21]: 25.6%; viability, T/C [22]: 21.5%; viability, T/C [23]: 22.1%; viability, T/C [24]: 18.5%; viability, T/C [25]: 34.1%; viability, T/C [26]: 35%; viability, T/C [27]: 31%; viability, T/C [28]: 26.8%; viability, T/C [29]: 26.7%; viability, T/C [30]: 28.5%
2 | COC(=O)c1ccc2c(C(=Nc3ccc(N(C)C(=O)CN4CCN(C)CC4)cc3)c3ccccc3)c(O)[nH]c2c1 + CNCc1ccccc1-c1csc(C(C)Nc2nc(C)nc3cc(OC)c(OC)cc23)c1 | 1740 nM | < 31.6 nM | < 31.6 nM | < 31.6 nM | < 31.6 nM | 59.9% | 49.5% | 47.1% | 63.4% | 42.4% | 35.8% | 46.4% | 44.1% | 41.5% | 35% | 9.64% | 20.3% | 22.6% | 24.5% | 19.5% | viability, T/C [16]: 25.6%; viability, T/C [17]: 3.56%; viability, T/C [18]: 5.39%; viability, T/C [19]: 0.42%; viability, T/C [20]: 0.43%; viability, T/C [21]: 0.22%; viability, T/C [22]: 0.73%; viability, T/C [23]: 0.79%; viability, T/C [24]: 0.62%; viability, T/C [25]: 0.47%; viability, T/C [26]: 0.1%; viability, T/C [27]: 0.08%; viability, T/C [28]: 0.1%; viability, T/C [29]: 0.11%; viability, T/C [30]: 0.15%
3 | CC1COCCN1c1cc(-c2ccnn2C)c2ccnc(-c3ccn[nH]3)c2n1 (centres undefined) | – | – | – | – | – | – | – | – | – | – | – | – | – | – | – | – | – | – | – | – | viability, T/C (compound 0.1 µM): 44% [middle of 5 runs]; viability, T/C (compound 0.316 µM): 42% [middle of 5 runs]; viability, T/C (compound 1 µM): 35.4% [middle of 5 runs]; viability, T/C (compound 3.16 µM): 33.2% [middle of 5 runs]
4 | CCNC(=O)CC1N=C(c2ccc(Cl)cc2)c2cc(OC)ccc2-n2c(C)nnc21 (centres undefined) + CC1OCC2(CCN(c3cnc(Sc4ccnc(N)c4Cl)c(N)n3)CC2)C1N | < 31.6 nM | < 31.6 nM | < 31.6 nM | < 31.6 nM | < 31.6 nM | 45.2% | 44% | 31.5% | 24.1% | 21% | 22.4% | 37.2% | 32.5% | 25.5% | 17.2% | 14.8% | 16.2% | 32.3% | 27.5% | 30.4% | viability, T/C [16]: 13.2%; viability, T/C [17]: 10.3%; viability, T/C [18]: 8.97%; viability, T/C [19]: 25.7%; viability, T/C [20]: 20.9%; viability, T/C [21]: 17.8%; viability, T/C [22]: 10.3%; viability, T/C [23]: 8.12%; viability, T/C [24]: 6.43%; viability, T/C [25]: 22.3%; viability, T/C [26]: 19.1%; viability, T/C [27]: 12%; viability, T/C [28]: 6.42%; viability, T/C [29]: 4.77%; viability, T/C [30]: 4.55%

— PubChem BioAssay AID1963862 (Molecular Pharmacology Branch, DTP, NCI, 2024)
